Experimental data from the NIST ThermoML archive (doi:10.1021/je500669y).

Experiment: xn = mol fraction of the nth substance listed
Details: Gas, isochoric method

F/C=C/C(F)(F)F [trans-1,3,3,3-tetrafluoropropene] + N#N
Details	specific volume [m3/kg]
263.05 K, 383.1 kPa, x2 = 0.75	0.114
263.16 K, 622.6 kPa, x2 = 0.746	0.069
273.12 K, 398.4 kPa, x2 = 0.75	0.114
273.13 K, 648.5 kPa, x2 = 0.746	0.069
273.19 K, 464.3 kPa, x2 = 0.5	0.066
283.07 K, 291.8 kPa, x2 = 0.495	0.11
283.1 K, 413.5 kPa, x2 = 0.75	0.114
283.1 K, 673.7 kPa, x2 = 0.746	0.069
283.12 K, 485.7 kPa, x2 = 0.5	0.066
293.08 K, 302.8 kPa, x2 = 0.495	0.11
293.09 K, 699 kPa, x2 = 0.746	0.069
293.11 K, 506.5 kPa, x2 = 0.5	0.066
293.13 K, 428.7 kPa, x2 = 0.75	0.114
303.05 K, 313.9 kPa, x2 = 0.495	0.11
303.16 K, 525.9 kPa, x2 = 0.5	0.066
303.17 K, 443.8 kPa, x2 = 0.75	0.114
303.18 K, 196.3 kPa, x2 = 0.254	0.136
303.19 K, 381.3 kPa, x2 = 0.25	0.069
303.35 K, 724.8 kPa, x2 = 0.746	0.069
313.14 K, 203.2 kPa, x2 = 0.254	0.136
313.17 K, 396.1 kPa, x2 = 0.25	0.069
313.17 K, 545.2 kPa, x2 = 0.5	0.066
313.18 K, 324.5 kPa, x2 = 0.495	0.11
313.18 K, 458.8 kPa, x2 = 0.75	0.114
313.2 K, 749.1 kPa, x2 = 0.746	0.069
323.13 K, 209.9 kPa, x2 = 0.254	0.136
323.15 K, 410.2 kPa, x2 = 0.25	0.069
323.16 K, 473.2 kPa, x2 = 0.75	0.114
323.17 K, 335.3 kPa, x2 = 0.495	0.11
323.17 K, 564 kPa, x2 = 0.5	0.066
323.17 K, 773.9 kPa, x2 = 0.746	0.069
333.16 K, 423.9 kPa, x2 = 0.25	0.069
333.17 K, 582.8 kPa, x2 = 0.5	0.066
333.17 K, 799.4 kPa, x2 = 0.746	0.069
333.18 K, 346.1 kPa, x2 = 0.495	0.11
333.19 K, 488.7 kPa, x2 = 0.75	0.114
333.34 K, 216.7 kPa, x2 = 0.254	0.136
343.11 K, 601.4 kPa, x2 = 0.5	0.066
343.12 K, 223.3 kPa, x2 = 0.254	0.136
343.12 K, 356.8 kPa, x2 = 0.495	0.11
343.13 K, 823.9 kPa, x2 = 0.746	0.069
343.14 K, 438.2 kPa, x2 = 0.25	0.069
343.14 K, 503.4 kPa, x2 = 0.75	0.114
353.05 K, 451.9 kPa, x2 = 0.25	0.069
353.08 K, 229.5 kPa, x2 = 0.254	0.136
353.1 K, 619.5 kPa, x2 = 0.5	0.066
353.11 K, 367.5 kPa, x2 = 0.495	0.111
353.13 K, 518.1 kPa, x2 = 0.75	0.114
353.13 K, 848.5 kPa, x2 = 0.746	0.069
363.06 K, 236.3 kPa, x2 = 0.254	0.136
363.1 K, 378.2 kPa, x2 = 0.495	0.111
363.1 K, 465.8 kPa, x2 = 0.25	0.069
363.1 K, 872.9 kPa, x2 = 0.746	0.069
363.12 K, 638.7 kPa, x2 = 0.5	0.066
363.25 K, 533.3 kPa, x2 = 0.75	0.114
373 K, 242.6 kPa, x2 = 0.254	0.136
373.07 K, 547.3 kPa, x2 = 0.75	0.114
373.09 K, 389.2 kPa, x2 = 0.495	0.111
373.09 K, 657 kPa, x2 = 0.5	0.066
373.1 K, 479.5 kPa, x2 = 0.25	0.069
373.16 K, 897.7 kPa, x2 = 0.746	0.069
383.05 K, 675.5 kPa, x2 = 0.5	0.066
383.06 K, 494.4 kPa, x2 = 0.25	0.069
383.08 K, 922.8 kPa, x2 = 0.746	0.069
383.09 K, 399.9 kPa, x2 = 0.495	0.111
383.09 K, 562.6 kPa, x2 = 0.75	0.114
383.26 K, 249.6 kPa, x2 = 0.254	0.136
393.05 K, 508.1 kPa, x2 = 0.25	0.069
393.06 K, 577.5 kPa, x2 = 0.75	0.114
393.06 K, 694 kPa, x2 = 0.5	0.066
393.08 K, 410.6 kPa, x2 = 0.495	0.111
393.13 K, 947.3 kPa, x2 = 0.746	0.069
393.14 K, 256.3 kPa, x2 = 0.254	0.136
402.99 K, 421.1 kPa, x2 = 0.495	0.111
403.04 K, 521.2 kPa, x2 = 0.25	0.069
403.04 K, 592.5 kPa, x2 = 0.75	0.114
403.05 K, 712.5 kPa, x2 = 0.5	0.066
403.1 K, 971.7 kPa, x2 = 0.746	0.069
403.14 K, 262.9 kPa, x2 = 0.254	0.137
413 K, 432.1 kPa, x2 = 0.495	0.111
413.01 K, 535.2 kPa, x2 = 0.25	0.069
413.04 K, 995.8 kPa, x2 = 0.746	0.069
413.06 K, 607.4 kPa, x2 = 0.75	0.114
413.1 K, 731 kPa, x2 = 0.5	0.066
413.13 K, 269.4 kPa, x2 = 0.254	0.137
